Like-named read-outs stand apart in the source and are kept apart here.
Biological target: T1, FAAH (Rattus norvegicus, UniProt P97612)
T1 construct: Preparation of Rat Brain Membranes Preparations (FAAH Enzyme Solution); from tissue; host or cells: rat cerebrum (brain membrane preparation)
T1 sequence (P97612 1-579): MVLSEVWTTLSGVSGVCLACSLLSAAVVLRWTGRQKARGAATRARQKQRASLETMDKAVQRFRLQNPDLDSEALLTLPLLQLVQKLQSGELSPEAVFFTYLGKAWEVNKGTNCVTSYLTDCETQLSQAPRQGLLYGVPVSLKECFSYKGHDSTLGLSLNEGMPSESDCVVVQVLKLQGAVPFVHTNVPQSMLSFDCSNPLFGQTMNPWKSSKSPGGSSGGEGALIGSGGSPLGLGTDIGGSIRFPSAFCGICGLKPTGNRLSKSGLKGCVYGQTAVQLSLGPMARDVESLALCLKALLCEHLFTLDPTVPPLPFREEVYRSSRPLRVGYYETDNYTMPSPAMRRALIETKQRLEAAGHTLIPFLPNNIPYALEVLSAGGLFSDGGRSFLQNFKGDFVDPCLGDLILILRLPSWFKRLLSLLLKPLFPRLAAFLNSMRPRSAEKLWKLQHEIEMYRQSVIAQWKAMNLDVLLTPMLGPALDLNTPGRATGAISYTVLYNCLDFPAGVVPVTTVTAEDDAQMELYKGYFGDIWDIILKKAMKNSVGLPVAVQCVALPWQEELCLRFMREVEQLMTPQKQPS
Experiment: Determination of FAAH inhibitory activity in rat (rat brain membrane preparations, [3H]-anandamide hydrolysis)
Type: biochemical
Conditions: rat brain membrane preparations; for IC50: read-out: FAAH Inhibition IC50
How it was run: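 Compounds tested from 0.1 nM to 1 μM to derive IC50 against FAAH hydrolysis in rat brain membrane preparations (100 μg/mL). A 10-min 37 °C preincubation was followed by 10 min with [3H]-anandamide (2 nM) mixed with 2 μM unlabelled anandamide. Radioactive ethanolamine was extracted into the water/methanol layer and counted.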

[1] = 100 nM test substance, read-out: FAAH Inhibition, Inhibition Rate at 100 nM
[2] = at 100 nM, read-out: FAAH Inhibition Inhibition Rate at 100 nM

| Structure (SMILES) | inhibition at 0.1 µM [1] [%] | IC50 (test substance 0.1 nM to 1 μM) [nM] | inhibition at 0.1 µM [2] [%] | IC50 [nM] |
| --- | --- | --- | --- | --- |
| CCOCc1ncc2c(n1)n(C)c(=O)n2C(=O)N1CC(c2cccc(F)c2)C1 [Example 462, 2-(Ethoxymethyl)-7-{[3-(3-fluorophenyl)azetidin-1-yl]carbonyl}-9-methyl-7,9-dihydro-8H-purine-8-one] | 113 | 10 |  |  |
| COCc1ncc2c(n1)n(C)c(=O)n2C(=O)N1CC[C@@H](Oc2ccccc2C)C1 [Example 476] | 76 | 57 |  |  |
| CN(C)C(=O)n1c(=O)n(C)c2cnc(COc3ccccc3C(F)(F)F)nc21 [Example 429] | 84 | 23 |  |  |
| CN(C)C(=O)n1c(=O)n(C)c2cnc(Cc3cccc(C(F)(F)F)c3)nc21 [Example 654, N,N,7-Trimethyl-8-oxo-2-[3-(trifluoromethyl)benzyl]-7,8-dihydro-9H-purine-9-carboxamide] |  |  | 110 | 11 |
| Cn1c(=O)n(C(=O)N2CCC2)c2nc(COc3ccccc3F)ncc21 [Example 425] | 79 | 12 |  |  |
| COc1cccc(-c2ncc3c(n2)n(C)c(=O)n3C(=O)N(C)CCc2ccc(C(F)(F)F)cc2)c1 [Example 92, 2-(3-Methoxyphenyl)-N,9-dimethyl-8-oxo-N-{2-[4-(trifluoromethyl)phenyl]ethyl}-8,9-dihydro-7H-purine-7-carboxamide] | 103 | 4 |  |  |
| Cn1c(=O)n(C(=O)N2CCCC2)c2cnc(-c3cc(F)ccc3F)nc21 [Example 189, 2-(2,5-Difluorophenyl)-9-methyl-7-(pyrrolidin-1-ylcarbonyl)-7,9-dihydro-8H-purine-8-one] | 100 | 7 |  |  |
| CN(C)C(=O)n1c(=O)n(C)c2cnc(-c3cccc(Cl)c3)nc21 [compound 328] | 118 | 5 |  |  |
| CCn1c(=O)n(C(=O)N2CCC2)c2nc(CCc3cccc(F)c3)ncc21 [Example 650, 9-(Azetidin-1-ylcarbonyl)-7-ethyl-2-[2-(3-fluorophenyl)ethyl]-7,9-dihydro-8H-purine-8-one] |  |  | 96 | 10 |
| COc1cccc(-c2ncc3c(n2)n(C)c(=O)n3C(=O)N2CCCC2)c1 [Example 173, 2-(3-Methoxyphenyl)-9-methyl-7-(pyrrolidin-1-ylcarbonyl)-7,9-dihydro-8H-purine-8-one] | 101 | 7 |  |  |
| CCN(C)C(=O)n1c(=O)n(C)c2nc(Cc3cccc(OC)c3)ncc21 [Example 277, N-Ethyl-2-(3-methoxybenzyl)-N,9-dimethyl-8-oxo-8,9-dihydro-7H-purine-7-carboxamide] | 96 | 7 |  |  |
| COc1ccccc1Cc1ncc2c(n1)n(C)c(=O)n2C(=O)N1CCCC1 [compound 260] | 84 | 58 |  |  |
| CC(C)Cn1c(=O)n(C(=O)N2CCCC2)c2cnc(-c3ccccc3)nc21 [Example 307] | 96 | 41 |  |  |
| CN(C)c1ccc(-c2ncc3c(n2)n(C)c(=O)n3C(=O)N2CCCC2)cc1 [Example 182, 2-[4-(Dimethylamino)phenyl]-9-methyl-7-(pyrrolidin-1-ylcarbonyl)-7,9-dihydro-8H-purine-8-one] | 100 | 28 |  |  |
| CCc1cccc(OCc2ncc3c(n2)n(C(=O)N2CCC2)c(=O)n3C)c1 [Example 418] | 75 | 35 |  |  |
| Cn1c(=O)n(C(=O)N2CCC2)c2cnc(Cc3ccc(Cl)cc3)nc21 [compound 378] | 80 | 31 |  |  |
| CCOCc1ncc2c(n1)n(C)c(=O)n2C(=O)N1CC(c2ccc(OCC)cc2)C1 [Example 463, 2-(Ethoxymethyl)-7-{[3-(4-ethoxyphenyl)azetidin-1-yl]carbonyl}-9-methyl-7,9-dihydro-8H-purine-8-one] | 136 | 10 |  |  |
| COc1cncc(-c2ncc3c(n2)n(C)c(=O)n3C(=O)N2CCCC2)c1 [compound 208] | 106 | 10 |  |  |
| Cn1c(=O)n(C(=O)N2CCCC2)c2cnc(-c3cccc(OC(F)(F)F)c3)nc21 [compound 204] | 81 | 56 |  |  |
| CN(C)C(=O)n1c(=O)n(C)c2cnc(CCOc3cccc(C(F)(F)F)c3)nc21 [compound 642] |  |  | 89 | 9 |
| COc1cccc(-c2ncc3c(n2)n(C)c(=O)n3C(=O)N2CC[C@H](F)C2)c1 [Example 63, 7-{[(3S)-3-Fluoropyrrolidin-1-yl]carbonyl}-2-(3-methoxyphenyl)-9-methyl-7,9-dihydro-8H-purine-8-one] | 100 | 17 |  |  |
| Cn1c(=O)n(C(=O)N2CCCC2)c2cnc(-c3cccc(OCc4ccccc4)c3)nc21 [Example 202, 2-(3-benzyloxyphenyl)-9-methyl-7-(pyrrolidin-1-ylcarbonyl)-7,9-dihydro-8H-purine-8-one] | 53 | 95 |  |  |

The remaining lines, values ahead:

| inhibition at 0.1 µM [1] [%] | IC50 (test substance 0.1 nM to 1 μM) [nM] | inhibition at 0.1 µM [2] [%] | IC50 [nM] | Structure (SMILES) |
| --- | --- | --- | --- | --- |
| 84 | 21 |  |  | Cn1c(=O)n(C(=O)N2CCC2)c2nc(CCc3cccc(C(F)F)c3)ncc21 [compound 594] |
| 75 | 63 |  |  | COc1cccc(CCc2ncc3c(n2)n(C)c(=O)n3C(=O)N2CCCC2)c1 [compound 15] |
| 101 | 11 |  |  | Cn1c(=O)n(C(=O)N2CCN(c3ccccc3)CC2)c2cnc(-c3ccccc3)nc21 [Example 120, 9-Methyl-2-phenyl-7-[(4-phenylpiperazin-1-yl)carbonyl]-7,9-dihydro-8H-purine-8-one] |
| 45 |  |  |  | COc1cccc(-c2ncc3c(n2)n(C(=O)N(C)C)c(=O)n3C)c1 [Example 322, 2-(3-Methoxyphenyl)-N,N,7-trimethyl-8-oxo-7,8-dihydro-9H-purine-9-carboxamide] |
| 97 | 19 |  |  | Cc1cccc(N2CCN(C(=O)n3c(=O)n(C)c4nc(-c5ccccc5)ncc43)CC2)n1 [Example 53, 9-Methyl-7-{[4-(6-methylpyridin-2-yl)piperazin-1-yl]carbonyl}-2-phenyl-7,9-dihydro-8H-purine-8-one] |
| 94 | 42 |  |  | Cc1ccccc1N1CCN(C(=O)n2c(=O)n(C)c3nc(-c4ccccc4)ncc32)CC1 [Example 130, 9-Methyl-7-{[4-(2-methylphenyl)piperazin-1-yl]carbonyl}-2-phenyl-7,9-dihydro-8H-purine-8-one] |
| 100 | 4 |  |  | CCOc1ccc(N2CCN(C(=O)n3c(=O)n(C)c4nc(-c5cccc(OC)c5)ncc43)CC2)cc1 [Example 141, 7-{[4-(4-Ethoxyphenyl)piperazin-1-yl]carbonyl}-2-(3-methoxyphenyl)-9-methyl-7,9-dihydro-8H-purine-8-one] |
| 95 | 25 |  |  | Cn1c(=O)n(C(=O)N2CCCC2)c2cnc(C3=CCCCC3)nc21 [Example 218, 2-(cyclohexen-1-yl)-9-methyl-7-(pyrrolidin-1-ylcarbonyl)-7,9-dihydro-8H-purine-8-one] |
|  |  | 97 | 8 | CCCn1c(=O)n(C(=O)N2CC(c3cccc(C(F)(F)F)c3)C2)c2cnc(COC)nc21 [Example 662, 2-(Methoxymethyl)-9-propyl-7-({3-[3-(trifluoromethyl)phenyl]azetidin-1-yl}carbonyl)-7,9-dihydro-8H-purine-8-one] |
| 95 | 40 |  |  | Cn1c(=O)n(C(=O)N2CCCC2)c2cnc(Cc3ccc(Cl)cc3)nc21 [Example 20, 2-(4-Chlorobenzyl)-9-methyl-7-(pyrrolidin-1-ylcarbonyl)-7,9-dihydro-8H-purine-8-one] |
| 102 | 10 |  |  | Cc1cc(C)cc(CCc2ncc3c(n2)n(C(=O)N(C)C)c(=O)n3C)c1 [compound 514] |
| 41 | 153 |  |  | CN(C)C(=O)n1c(=O)n(C)c2cnc(CCc3cccc(C(F)F)c3)nc21 [compound 537] |
| 94 | 22 |  |  | COc1cccc(-c2ncc3c(n2)n(C)c(=O)n3C(=O)N(C)CC(C)C)c1 [Example 108, 2-(3-Methoxyphenyl)-N,9-dimethyl-N-(2-methylpropyl)-8-oxo-8,9-dihydro-7H-purine-7-carboxamide] |
| 28 | > 100 |  |  | COc1cncc(-c2ncc3c(n2)n(C(=O)N2CCCC2)c(=O)n3C)c1 [Example 251] |
| 58 | 89 |  |  | Cn1c(=O)n(C(=O)N2CCCC2)c2cnc(-c3ccc(C(C)(C)C)cc3)nc21 [compound 185] |
| 20 | > 100 |  |  | CCN(CC)C(=O)n1c(=O)n(C)c2nc(-c3ccccc3)ncc21 [Example 40] |
